Source: patent US11964950B2, “Arylamide derivative having antitumor activity” (priority 2020, dated 2024)

What was measured:
[1] = tested on: Calu-6 human lung cancer cells; assay: Cell proliferation-inhibiting activity, Calu-6 (CellTiter-Glo, ATP in viable cells); assay type: cell-based; conditions: Calu-6, 96 h, Table 3, 4 days culture
Method: (§1) The cell proliferation-inhibiting activity of the compounds listed in Table 3 below was evaluated by measuring the amount of ATP in viable cells as described below.
(§2) The test compound was serially diluted with DMSO and then diluted 25-fold with Ca^2+, Mg^2+-free phosphate-buffered saline, and was then dispensed into a 96-well plate at 5 μL per well. A cell suspension containing the below indicated concentration of A549, Calu-6 or NCI-H2122 human lung cancer cells (all obtained from ATCC) was prepared using the below indicated medium with the addition of 10% fetal bovine serum (Sigma). The cell suspension was dispensed into the test compound-added plate at 95 μL per well and cultured in a 5% carbon dioxide gas incubator at 37° C. After 4 days, 80 μL of CellTiter-Glo (registered trademark) (Promega Corp.) was added to each well and the bioluminescence was measured with a fluorescent plate reader.
Calu-6: Eagle's Minimum Essential Medium (Sigma); 4000 cells/95 μL

[2] = tested on: NCI-H2122 human lung cancer cells; assay: Cell proliferation-inhibiting activity, NCI-H2122 (CellTiter-Glo, ATP in viable cells); assay type: cell-based; conditions: NCI-H2122, 96 h, Table 3, 4 days culture
Method: as §1, §2

[3] = tested on: A549 human lung cancer cells; assay: Cell proliferation-inhibiting activity, A549 (CellTiter-Glo, ATP in viable cells); assay type: cell-based; conditions: A549, 96 h, Table 3, 4 days culture
Method: as §1, §2
A549: Dulbecco's Modified Eagle's Medium (Sigma); 2000 cells/95 μL

[4] = Human liver microsome stability; assay type: in vitro ADME; conditions: NADPH, 37° C.; for microsomal CLint at 0.99 µM: human liver microsomes (XENOTECH), pH 7.4, hepatic intrinsic clearance; for CLint: hepatic intrinsic clearance, human liver microsomes
Method: There were dispensed 400 μL of 1 mg/mL human liver microsomes (XENOTECH)/0.1 M potassium phosphate buffer (pH 7.4) into each well of a 96-well plate. A DMSO solution (4 μL) of 200 μM test compound was then added, and incubation was conducted until reaching 37° C. To this reaction mixture (200 μL) there was added a solution (200 μL) containing 2 mM NADPH (ORIENTAL YEAST)/0.1 M potassium phosphate buffer (pH 7.4) that had been incubated at 37° C. At 0 min, 5 min, 15 min or 30 min after addition, the reaction mixture (50 μL) was added to acetonitrile (100 μL) to stop the metabolic reaction. After the metabolic reaction was stopped, a 1 μM warfarin aqueous solution (50 μL) was added to each reaction mixture as an internal standard. The reaction mixture was filtered and analyzed by LC/MS/MS (LC: NEXERA by Shimadzu; MS: 4000Q trap by ABSciex; column: Ascentis Express C18 HPLC column (5 cm×2.1 mm, 2.7 μm); ionization method: electrospray ionization). The percent remaining relative to the amount of test compound at 0 min was calculated from the obtained peak area ratio of the test compound to internal standard. The elimination rate constant (ke) was calculated from the incubation time and percent remaining using the primary elimination rate equation, and the hepatic intrinsic clearance (CLint) was calculated using the formula shown below. CLint (μL/min/mg)=ke (min^−1)/human liver microsome concentration (mg protein/μL)

SMILES	IC50 [1] [nM]	IC50 [2] [nM]	IC50 [3] [nM]	microsomal CLint at 0.99 µM [4] [µL/min/mg]	CLint [4] [µL/min/mg]
CCS(=O)(=O)Nc1nccc(Cn2cc(C(N)=O)c(Nc3ccc(I)cc3F)c(C)c2=O)c1F [P-2, 1-[[2-(ethylsulfonylamino)-3-fluoropyridin-4-yl]methyl]-4-(2-fluoro-4-iodoanilino)-5-methyl-6-oxopyridine-3-carboxamide]	337	109			
CNS(=O)(=O)Nc1nccc(Cc2cc(C(=O)NC3CC3)c(Nc3ccc(I)cc3F)c(F)c2F)c1F [A-2, N-cyclopropyl-3,4-difluoro-2-(2-fluoro-4-iodoanilino)-5-[[3-fluoro-2-(methylsulfamoylamino)pyridin-4-yl]methyl]benzamide]	2	0.1	1		
CNS(=O)(=O)Nc1nccc(Cc2cc(C(=O)NC3CC3)c(Nc3ccc(C4CC4)cc3F)c(F)c2F)c1F [G-1, N-Cyclopropyl-2-(4-cyclopropyl-2-fluoroanilino)-3,4-difluoro-5-[[3-fluoro-2-(methylsulfamoylamino)pyridin-4-yl]methyl]benzamide]	65	6	21		
COCC1(NS(=O)(=O)Nc2nccc(Cc3cc(C(N)=O)c(Nc4ccc(I)cc4F)c(F)c3F)c2F)CC1 [A-16, 3,4-Difluoro-2-(2-fluoro-4-iodoanilino)-5-[[3-fluoro-2-[[1-(methoxymethyl)cyclopropyl]sulfamoylamino]pyridin-4-yl]methyl]benzamide]				47	
CC1(NS(=O)(=O)Nc2nccc(Cc3cc(C(N)=O)c(Nc4ccc(I)cc4F)c(F)c3F)c2F)CC1 [A-23, 3,4-Difluoro-2-(2-fluoro-4-iodoanilino)-5-[[3-fluoro-2-[(1-methylcyclopropyl)sulfamoylamino]pyridin-4-yl]methyl]benzamide]					<1
CNS(=O)(=O)Nc1cccc(Cc2cc(C(=O)NC3CC3)c(Nc3ccc(C4CC4)cc3F)c(F)c2F)c1F [D-15, N-Cyclopropyl-2-(4-cyclopropyl-2-fluoroanilino)-3,4-difluoro-5-[[2-fluoro-3-(methylsulfamoylamino)phenyl]methyl]benzamide]	118	11			
CNS(=O)(=O)Nc1nccc(Cc2c(C)c3ccc(Oc4ncccn4)cc3oc2=O)c1F [Ref-5, 3-[[3-Fluoro-2-(methylsulfamoylamino)pyridin-4-yl]methyl]-4-methyl-7-pyrimidin-2-yloxychromen-2-one, reference compound]					<1
CS(=O)(=O)Nc1cccc(Cc2cc(C(N)=O)c(Nc3ccc(I)cc3F)c(F)c2F)c1F [E-13, 3,4-difluoro-2-(2-fluoro-4-iodoanilino)-5-[[2-fluoro-3-(methanesulfonamide)phenyl]methyl]benzamide]				25	
CNS(=O)(=O)Nc1nccc(Cc2cc(C(N)=O)c(Nc3ccc(C4CC4)cc3F)n(C)c2=O)c1F [J-3, 2-(4-Cyclopropyl-2-fluoroanilino)-5-[[3-fluoro-2-(methylsulfamoylamino)pyridin-4-yl]methyl]-1-methyl-6-oxopyridine-3-carboxamide]	972	123	854		
CC1(S(=O)(=O)Nc2cccc(Cc3cc(C(N)=O)c(Nc4ccc(I)cc4F)c(F)c3F)c2F)CC1 [E-16, 3,4-Difluoro-2-(2-fluoro-4-iodoanilino)-5-[[2-fluoro-3-[(1-methylcyclopropyl)sulfonylamino]phenyl]methyl]benzamide]					<1
COCC1(S(=O)(=O)Nc2cccc(Cc3cc(C(=O)NOC)c(Nc4ccc(I)cc4F)c(F)c3F)c2F)CC1 [E-3, 3,4-Difluoro-2-(2-fluoro-4-iodoanilino)-5-[[2-fluoro-3-[[1-(methoxymethyl)cyclopropyl]sulfonylamino]phenyl]methyl]-N-methoxybenzamide]				149	
NC(=O)c1cc(Cc2ccnc(NS(=O)(=O)NC3CC3)c2F)c(F)cc1Nc1ccc(I)cc1F [1-3, 5-[[2-(Cyclopropylsulfamoylamino)-3-fluoropyridin-4-yl]methyl]-4-fluoro-2-(2-fluoro-4-iodoanilino)benzamide]	120	21	32		
COCCNS(=O)(=O)Nc1nccc(Cc2cc(C(=O)NOC)c(Nc3ccc(I)cc3F)n(C)c2=O)c1F [J-9, 2-(2-Fluoro-4-iodoanilino)-5-[[3-fluoro-2-(2-methoxyethylsulfamoylamino)pyridin-4-yl]methyl]-N-methoxy-1-methyl-6-oxopyridine-3-carboxamide]	232		167		
CCS(=O)(=O)Nc1cccc(Cc2cc(C(=O)NOC(C)(C)C)c(Nc3ccc(I)cc3F)n(C)c2=O)c1F [K-9, 5-[[3-(Ethylsulfonylamino)-2-fluorophenyl]methyl]-2-(2-fluoro-4-iodoanilino)-1-methyl-N-[(2-methylpropan-2-yl)oxy]-6-oxopyridine-3-carboxamide]				185	
CS(=O)(=O)Nc1cccc(Cc2cc(C(=O)NC3CC3)c(Nc3ccc(I)cc3F)c(F)c2F)c1F [E-25, N-Cyclopropyl-3,4-difluoro-2-(2-fluoro-4-iodoanilino)-5-[[2-fluoro-3-(methanesulfonamide)phenyl]methyl]benzamide]				8	
CCNS(=O)(=O)Nc1nccc(Cc2cc(C(N)=O)c(Nc3ccc(I)cc3F)n(C)c2=O)c1F [J-14, 5-[[2-(ethylsulfamoylamino)-3-fluoropyridin-4-yl]methyl]-2-(2-fluoro-4-iodoanilino)-1-methyl-6-oxopyridine-3-carboxamide]	123		121		
CNS(=O)(=O)Nc1nccc(Cc2cc(C(N)=O)c(Nc3ccc4sccc4c3F)c(F)c2F)c1F [H-3, 3,4-difluoro-2-[(4-fluoro-1-benzothiophen-5-yl)amino]-5-[[3-fluoro-2-(methylsulfamoylamino)pyridin-4-yl]methyl]benzamide]		1	5		
